Test results from ChEMBL document CHEMBL2448688, “Selection and optimization of hits from a high-throughput phenotypic screen against Trypanosoma cruzi. Exported from HEOS 25-Oct-2013. See also related datasets CHEMBL3137440 and CHEMBL3137386”.
Values after ≈ are worked out from the molar mass of the structure shown. Values joined by “and” are separate entries in the source; they are usually repeats but may differ in a detail not shown here. Identical values can stand only once.

What was measured:
Trypanosoma cruzi [1] = assay: (§1) DNDI: Chagas in Vitro; format: functional, Tulahuen C4 (LacZ)
Trypanosoma cruzi [2] = assay: as §1; format: functional, organism-based, Tulahuen C4 (LacZ)
Cytochrome P450 3A4 [3] = molecular target: T1, Cytochrome P450 3A4 (Homo sapiens, UniProt P08684); assay: DNDI: CYP Inhibition; format: ADME
[4] = tested on: Trypanosoma brucei rhodesiense; assay: DNDI: HAT in Vitro; format: functional, organism-based, ATCC 30027
[5] = (§2) DNDI: Cytotoxicity in vitro, against rat skeletal myoblast (L-6) cells; details: L-6 cells (skeletal myoblasts), IC50
[6] = DNDI: Lipophilicity (gLogD) at pH 3; details: buffer, pH 3, logD
in vitro [7] = details: human, microsomes, EH
[8] = DNDI: Lipophilicity (gLogD) at pH 7.4; details: buffer, pH 7.4, logD
[9] = DNDI: Solubility in 0.01M HCl at pH 2 determined by nephelometry; details: 0.01M HCl, pH 2, Kinetic
L6 = assay: as §2; details: L-6 cells (skeletal myoblasts)
[10] = DNDI: Solubility in phosphate buffer at pH 6.5 determined by nephelometry; details: phosphate buffer, pH 6.5, Kinetic
in vitro [11] = details: human, microsomes
in vitro [12] = details: human, microsomes, t (1 / 2)
Leishmania infantum = assay: DNDI: Leish (macro) in Vitro; format: functional, organism-based, MHOM/MA(BE)/67
[13] = DNDI: Cytotoxicity in vitro, against human lung fibroblast (MRC-5) cells; details: MRC-5 cells (lung fibroblasts)
Cytochrome P450 3A4 [14] = molecular target: T1, Cytochrome P450 3A4; assay: DNDI: Human CYP3A4 inhibition determined using 6b-hydroxylation of testosterone
Leishmania donovani = assay: DNDI: Leish macro in vitro at 10 uM; format: functional; details: MHOM/ET/67/L82
[15] = DNDI: Protein binding in mouse plasma
in vitro [16] = details: rat, hepatocytes
in vitro [17] = details: mouse, microsomes
in vitro [18] = details: mouse, microsomes; remark: listed apart in the source
in vitro [19] = details: rat, microsomes
Trypanosoma cruzi [20] = assay: DNDI: Chagas in vivo at 20 mg/kg, 20 days 2x; format: functional, Tulahuen Swiss po
in vitro [21] = details: rat, microsomes; remark: listed apart in the source
[22] = DNDI: Protein binding in rat plasma; format: ADME, cell-free; details: read-out: % bound (converted)
Trypanosoma cruzi [23] = assay: DNDI: Chagas in vivo at 50 mg/kg, 20 days 1x; format: functional, Tulahuen Swiss po
CYP3A4 [24] = molecular target: T2, CYP3A4 (Homo sapiens, UniProt P08684); assay: DNDI: Human CYP3A4 inhibition at 1 uM determined using 6b-hydroxylation of testosterone; details: probe testosterone (6b-hydroxylation)
CYP3A4 [25] = molecular target: T2, CYP3A4; assay: DNDI: Human CYP3A4 inhibition at 10 uM determined using 6b-hydroxylation of testosterone; details: probe testosterone (6b-hydroxylation)
[26] = DNDI: Metabolism; format: ADME, Microsome; details: rat, microsomes
[27] = Trypanosoma cruzi, Tulahuen C4 (LacZ)

T1 sequence (P08684 whole entry): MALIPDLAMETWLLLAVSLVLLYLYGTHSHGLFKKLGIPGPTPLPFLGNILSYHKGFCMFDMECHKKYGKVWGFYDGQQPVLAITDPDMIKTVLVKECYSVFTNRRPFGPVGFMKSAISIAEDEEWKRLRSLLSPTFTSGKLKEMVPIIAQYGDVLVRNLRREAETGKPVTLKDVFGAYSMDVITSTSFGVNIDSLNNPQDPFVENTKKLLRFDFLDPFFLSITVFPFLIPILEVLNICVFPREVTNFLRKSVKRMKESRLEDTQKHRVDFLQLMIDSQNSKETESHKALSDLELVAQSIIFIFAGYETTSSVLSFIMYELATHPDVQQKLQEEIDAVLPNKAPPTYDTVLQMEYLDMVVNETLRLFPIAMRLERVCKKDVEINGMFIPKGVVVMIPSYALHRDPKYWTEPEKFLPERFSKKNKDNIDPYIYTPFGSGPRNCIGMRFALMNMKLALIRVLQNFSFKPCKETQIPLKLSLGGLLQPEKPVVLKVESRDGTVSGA
T2 sequence (P08684 whole entry): as above

OC(COc1ccc2cc(Br)ccc2c1)Cn1ccnc1 (configuration not stated)
IC90 (Trypanosoma cruzi [1]; [27]): 193 nM
IC50 (Trypanosoma cruzi [2]; [27]): 30 nM
IC50 (Cytochrome P450 3A4 [3]): 700 nM
IC50 ([4]; Trypanosoma brucei, ATCC 30027): > 10000 nM
IC50 [5]: 65.9 µM

O=c1c2ccccc2nc(-c2ccc(-c3ccccc3)cc2)n1Cc1cccnc1
chromatographic logD [6]: 3.4
IC90 (Trypanosoma cruzi [1]): 257 nM and > 100 nM
hepatic extraction ratio (in vitro [7]): 0.73
IC50 (Trypanosoma cruzi [2]): 26 nM
IC50 (Trypanosoma cruzi [2]; [27]): 25.5 nM
chromatographic logD [8]: 3.8
IC50 (Cytochrome P450 3A4 [3]): > 20000 nM
IC50 [4]: 23300 nM and > 10000 nM
solubility kinetic [9]: > 100 µg/mL
IC50 (L6): 19.4 µM
IC50 [5]: 16.1 µM
solubility kinetic [10]: 1.6 µg/mL (≈ 4.11 µM)
microsomal CLint (in vitro [11]): 48 µL/min/mg
half-life (in vitro [12]): 36 min

CCN(c1ccccc1)S(=O)(=O)c1ccc(NC(=O)CN(C)C2CCN(C)CC2)c(Cl)c1.Cl
chromatographic logD [6]: 2.9
chromatographic logD [8]: 4.4
IC50 ([4]; Trypanosoma brucei, ATCC 30027): 1420 nM
solubility kinetic [9]: > 100 µg/mL
IC50 (Leishmania infantum): 11300 nM and 24000 nM
solubility kinetic [10]: > 100 µg/mL
microsomal CLint (in vitro [11]): 169 µL/min/mg
IC50 [13]: 40.6 µM
half-life (in vitro [12]): 10 min

CCN(c1ccccc1)S(=O)(=O)c1ccc(Cl)c(NC(=O)c2ccc3c(c2)CCNC3)c1
IC90 (Trypanosoma cruzi [1]; [27]): > 1000 nM
hepatic extraction ratio (in vitro [7]): 0.943
IC50 (Trypanosoma cruzi [2]; [27]): > 1000 nM
IC50 ([4]; Trypanosoma brucei, ATCC 30027): 604 nM
solubility kinetic [9]: 95.9 µg/mL (≈ 204 µM)
IC50 [5]: 19.9 µM
IC50 (Leishmania infantum): 2160 nM and 8000 nM
solubility kinetic [10]: 14.5 µg/mL (≈ 30.8 µM)
microsomal CLint (in vitro [11]): 334 µL/min/mg
IC50 [13]: 29.4 µM
half-life (in vitro [12]): 5.2 min
IC50 (Cytochrome P450 3A4 [14]): 5.83 µM

N#Cc1ccc(-n2ccnc2)c(NC(=O)c2cnc(-c3ccccc3)nc2)c1
chromatographic logD [6]: 1.9
IC90 (Trypanosoma cruzi [1]; [27]): > 100 nM
hepatic extraction ratio (in vitro [7]): 0.46
IC50 (Trypanosoma cruzi [2]): 84 nM
IC50 (Trypanosoma cruzi [2]; [27]): > 100 nM
chromatographic logD [8]: 2.7
IC50 ([4]; Trypanosoma brucei, ATCC 30027): > 10000 nM
solubility kinetic [9]: 50 µg/mL (≈ 136 µM)
IC50 [5]: > 100 µM
solubility kinetic [10]: 3.1 µg/mL (≈ 8.46 µM)
microsomal CLint (in vitro [11]): 15 µL/min/mg
inhibition at 10 µM (Leishmania donovani): 53.5%
half-life (in vitro [12]): 113 min
IC50 (Cytochrome P450 3A4 [14]): > 20 µM

CS(=O)(=O)c1ccc(-n2ccnc2)c(NC(=O)c2cnc(-c3ccccc3)nc2)c1
chromatographic logD [6]: 1.7
IC90 (Trypanosoma cruzi [1]; [27]): > 100 nM
hepatic extraction ratio (in vitro [7]): < 0.28
IC50 (Trypanosoma cruzi [2]; [27]): 90 nM
chromatographic logD [8]: 2.3
IC50 ([4]; Trypanosoma brucei, ATCC 30027): > 10000 nM
solubility kinetic [9]: 50 µg/mL (≈ 119 µM)
IC50 [5]: > 100 µM
solubility kinetic [10]: 12.5 µg/mL (≈ 29.8 µM)
microsomal CLint (in vitro [11]): < 7 µL/min/mg
inhibition at 10 µM (Leishmania donovani): 48.2%
half-life (in vitro [12]): > 250 min
IC50 (Cytochrome P450 3A4 [14]): > 20 µM

CO/N=C(\C)c1ccc(-n2ccnc2)c(NC(=O)c2cnc(-c3ccccc3)nc2)c1
fraction unbound [15]: 0.028
chromatographic logD [6]: 2.6
IC90 (Trypanosoma cruzi [1]): 10.5 nM and 25.9 nM
IC50 (Trypanosoma cruzi [2]): 3 nM and 8 nM
chromatographic logD [8]: 3.4
CLhep predicted (in vitro [16]): 26.7 mL/min/kg
half-life (in vitro [17]): 52 min
IC50 ([4]; Trypanosoma brucei, ATCC 30027): > 10000 nM
microsomal CLint (in vitro [18]): 34 µL/min/mg
half-life (in vitro [19]): 38 min
solubility kinetic [9]: > 100 µg/mL
PCR cure rate (Trypanosoma cruzi [20]): 0%
Parasitemia clearance after immunosuppression (Trypanosoma cruzi [20]): 60%
Parasitemia clearance after treatment (Trypanosoma cruzi [20]): 80%
IC50 [5]: > 100 µM
solubility kinetic [10]: < 1.6 µg/mL
microsomal CLint (in vitro [11]): 24 µL/min/mg
microsomal CLint (in vitro [21]): 46 µL/min/mg
inhibition at 10 µM (Leishmania donovani): 47.3%
fraction unbound [22]: 0.014
half-life (in vitro [12]): 73 min
PCR cure rate (Trypanosoma cruzi [23]): 0%
Parasitemia clearance after immunosuppression (Trypanosoma cruzi [23]): 0%
Parasitemia clearance after treatment (Trypanosoma cruzi [23]): 60%

CN(CC(O)COc1ccc2cc(Br)ccc2c1)C1CCCCC1 (configuration not stated)
chromatographic logD [6]: 2.6
IC90 (Trypanosoma cruzi [1]): 7840 nM
IC90 (Trypanosoma cruzi [1]; [27]): 8480 nM
hepatic extraction ratio (in vitro [7]): 0.34
IC50 (Trypanosoma cruzi [2]): 4640 nM
IC50 (Trypanosoma cruzi [2]; [27]): 4550 nM
chromatographic logD [8]: 3.6
solubility kinetic [9]: > 100 µg/mL
IC50 (L6): 17 µM
IC50 [5]: 16.6 µM
IC50 (Leishmania infantum): 1680 nM and 2000 nM
IC50 (Leishmania infantum; Leishmania infantum, MHOM/MA(BE)/67): 1260 nM
solubility kinetic [10]: > 100 µg/mL
microsomal CLint (in vitro [11]): 13 µL/min/mg
IC50 [13]: > 64 µM
inhibition at 1 µM (CYP3A4 [24]): 5%
inhibition at 10 µM (CYP3A4 [25]): 11%
half-life (in vitro [12]): 132 min
IC50 (Cytochrome P450 3A4 [14]): > 10 µM

CC(C)N(C)CC(O)COc1ccc2cc(Br)ccc2c1 (configuration not stated)
chromatographic logD [6]: 2.6
IC90 (Trypanosoma cruzi [1]): 8950 nM and 8790 nM and > 10000 nM
IC90 (Trypanosoma cruzi [1]; [27]): 8780 nM
hepatic extraction ratio (in vitro [7]): < 0.23
IC50 (Trypanosoma cruzi [2]): 6400 nM and 5430 nM and 5750 nM and 5780 nM and 6570 nM
IC50 (Trypanosoma cruzi [2]; [27]): > 10000 nM
chromatographic logD [8]: 3.6
IC50 [4]: 507 nM and 1550 nM
solubility kinetic [9]: > 100 µg/mL
IC50 (L6): 34.8 µM
IC50 [5]: 19.2 µM
IC50 (Leishmania infantum): 6730 nM and 2380 nM
solubility kinetic [10]: > 100 µg/mL
microsomal CLint (in vitro [11]): < 7 µL/min/mg
IC50 [13]: > 64 µM
half-life (in vitro [12]): > 250 min
IC50 (Cytochrome P450 3A4 [14]): > 20 µM

CO/N=C(\C)c1ccc(-n2ccnc2)c(NC(=O)c2ccc(-c3ccccc3)cc2)c1
CLblood [26]: 35 mL/min/kg
chromatographic logD [6]: 3.1
IC90 (Trypanosoma cruzi [1]; [27]): 65 nM
IC50 (Trypanosoma cruzi [2]; [27]): 20.4 nM
chromatographic logD [8]: 3.9
CLhep predicted (in vitro [16]): 24.5 mL/min/kg
half-life (in vitro [17]): 56 min
microsomal CLint (in vitro [18]): 31 µL/min/mg
half-life (in vitro [19]): 40 min
solubility kinetic [9]: > 100 µg/mL
IC50 [5]: > 100 µM
solubility kinetic [10]: < 1.6 µg/mL
microsomal CLint (in vitro [11]): 30 µL/min/mg
microsomal CLint (in vitro [21]): 43 µL/min/mg
half-life (in vitro [12]): 58 min

CO/N=C(\C)c1ccc(-n2ccnc2)c(NC(=O)c2cnc(-c3ccccc3)cn2)c1
CLblood [26]: 38 mL/min/kg
chromatographic logD [6]: 2.6
IC90 (Trypanosoma cruzi [1]; [27]): 8.9 nM
IC50 (Trypanosoma cruzi [2]; [27]): 2.53 nM
chromatographic logD [8]: 3.9
CLhep predicted (in vitro [16]): 32.3 mL/min/kg
half-life (in vitro [17]): 61 min
microsomal CLint (in vitro [18]): 29 µL/min/mg
half-life (in vitro [19]): 35 min
solubility kinetic [9]: 25 µg/mL (≈ 60.6 µM)
IC50 [5]: 58.7 µM
solubility kinetic [10]: < 1.6 µg/mL
microsomal CLint (in vitro [11]): 30 µL/min/mg
microsomal CLint (in vitro [21]): 50 µL/min/mg
half-life (in vitro [12]): 58 min
